Read-outs that look alike come from different tables or passages of the source.
Columns and labels:
calf thymus DNA (CT-DNA) = experiment: Thermal denaturation studies with duplex-form calf thymus DNA; type: binding; details: [PND]/[DNA] molar ratio 1:5, CT-DNA 100 μM, ligand 20 μM, aqueous sodium phosphate buffer pH 7; for ΔTm after incubation at 37° C. for 0 hr: 0 hr at 37° C.; for ΔTm after incubation at 37° C. for 18 hrs: 18 hrs at 37° C.
Method: Compounds have been subjected to thermal denaturation studies with duplex-form calf thymus DNA (CT-DNA) using an modification of a reported procedure (Newman, M. S. Carcinog-compr. Surv. 1976, 1, 203; (b) Hecht, S. S.; Loy, M.; Hoffman, Carcinog-compr. Surv. 1976, 1, 325). Working solutions in aqueous buffer (10 mM NaH2PO4/Na2HPO4, 1 mM Na2EDTA, pH 7.00+0.01) containing CT-DNA (100 μm in phosphate) and the PND (pyrrolo naphtha diazepine) (20 μm) have been prepared by addition of concentrated PND (pyrrolo naphtha diazepine) solutions in DMSO to obtain a fixed [PND]/[DNA] molar ratio of 1:5. The DNA-PND (pyrrolo naphtha diazepine) solutions have been incubated at 37° C. for 0 and 18 h prior to analysis. Samples have been monitored at 260 nm using a Beckman DU-800 spectrophotometer fitted with high performance temperature controller, and heated at 1° C. min in the 40-110° C. range. DNA helix→coil transition temperatures (Tm) have been obtained from the maxima in the d(A260)/dT derivative plots. Drug-induced alterations in DNA melting behavior are given by: ΔTm=Tm(DNA+PND)−Tm(DNA alone), where the Tm value for the PND-free CT-DNA is 69.1±0.01.
The DNA binding activity for these novel substituted piperazine linked pyrrolo naphtho diazepine hybrids has been examined by thermal denaturation studies using calf thymus (CT) DNA. […] The data for some of the compounds are included in Table 1 for comparison.

[1] = In vitro anticancer activity, MTT assay; type: cell-based; details: kidney cancer cell line; MTT, 48 h continuous drug exposure; read-out: IC50 COS-1
Method: (§1) In vitro biological activity studies were carried out at the pharmacology division, IICT, Hyderabad. The compounds were evaluated for in vitro anticancer activity against eight tumour cell lines derived from […] cancer types (breast, lung, liver, skeletal, kidney, prostrate, small intestine) as shown in Table 2. For each compound, dose response curves for each cell line were measured at a minimum of five concentrations at 10 fold dilutions. A protocol of 48 h continuous drug exposure was used and a MTT assay was used to estimate cell viability or growth. The concentration causing 50% inhibition (IC50) compared with the control was calculated. Some of the compounds have been evaluated for their in vitro cytotoxicity in eight cell lines from seven human cancer types. The results are expressed as IC50 determined relative to that of untreated control cells (Table-2).

L-6 = experiment: In vitro anticancer activity, MTT assay; type: cell-based; details: skeletal cancer cell line; MTT, 48 h continuous drug exposure
Method: as §1

[2] = tested on: L-6 skeletal cancer cell line; experiment: In vitro anticancer activity, MTT assay; type: cell-based; details: result in words
Method: as §1

[3] = tested on: COS-1 kidney cancer cell line; experiment: In vitro anticancer activity, MTT assay; type: cell-based; details: for IC50: COS-1, range over the listed compounds, exposure period of at least 48 hrs, read-out: IC50 against kidney cancer cell lines
Method: as §1

[4] = tested on: IEC-6 small intestine cell line; experiment: In vitro anticancer activity, MTT assay; type: cell-based; details: for in-vitro cytotoxicity in small intestine cancer cell line (IEC-6): result in words
Method: as §1

[5] = tested on: NCIH460 large cell lung cancer cell line; experiment: In vitro anticancer activity, MTT assay; type: cell-based, human; details: for IC50: large cell lung cancer cell line, MTT, 48 h continuous drug exposure; for in-vitro cytotoxicity in large cell lung cancer cell line (NCIH460): result in words
Method: as §1

[6] = tested on: HEPG2 liver cancer cell line; experiment: In vitro anticancer activity, MTT assay; type: cell-based, human; details: for in-vitro cytotoxicity in liver cancer cell line (HEPG2): result in words
Method: as §1

[7] = tested on: PC-3 prostrate cancer cell line; experiment: In vitro anticancer activity, MTT assay; type: cell-based, human; details: for IC50: prostrate cancer cell line, MTT, 48 h continuous drug exposure; for in-vitro cytotoxicity in prostrate cancer cell line (PC-3): result in words
Method: as §1

[8] = tested on: A549 lung cancer cell line; experiment: In vitro anticancer activity, MTT assay; type: cell-based, human; details: for in-vitro cytotoxicity in lung cancer cell line (A549): result in words
Method: as §1

[9] = tested on: MCF7 breast cancer cell line; experiment: In vitro anticancer activity, MTT assay; type: cell-based, human; details: for IC50: breast cancer cell line, MTT, 48 h continuous drug exposure; for in-vitro cytotoxicity in breast cancer cell line (MCF-7): result in words
Method: as §1

[10] = small intestine cell line, MTT, 48 h continuous drug exposure, read-out: IC50 IEC-6
[11] = liver cancer cell line, MTT, 48 h continuous drug exposure, read-out: IC50 HEPG2
[12] = lung cancer cell line, MTT, 48 h continuous drug exposure, read-out: IC50 A549
[13] = IEC-6, range over the listed compounds, exposure period of at least 48 hrs, read-out: IC50 against small intestine cancer cell lines
[14] = IEC-6, small intestine cell line, MTT, 48 h continuous drug exposure, read-out: IC50 IEC-6
[15] = Homo sapiens, HepG2, liver cancer cell line, MTT, 48 h continuous drug exposure, read-out: IC50 HEPG2
[16] = Homo sapiens, HepG2, range over the listed compounds, exposure period of at least 48 hrs, read-out: IC50 against liver cancer cell lines
[17] = Homo sapiens, A549, lung cancer cell line, MTT, 48 h continuous drug exposure, read-out: IC50 A549
[18] = Homo sapiens, A549, range over the listed compounds, exposure period of at least 48 hrs, read-out: IC50 against lung cancer cell lines

Compound	ΔTm after incubation at 37° C. for 0 hr (calf thymus DNA (CT-DNA)) [°C]	ΔTm after incubation at 37° C. for 18 hrs (calf thymus DNA (CT-DNA)) [°C]	IC50 [1] [nM]	IC50 (L-6) [nM]	in-vitro cytotoxicity in skeletal cancer cell line (L-6) [2]	in-vitro cytotoxicity in small intestine cancer cell line (IEC-6) [4]	IC50 [4, 10] [nM]	IC50 [5] [nM]	in-vitro cytotoxicity in large cell lung cancer cell line (NCIH460) [5]	IC50 [6, 11] [nM]	in-vitro cytotoxicity in liver cancer cell line (HEPG2) [6]	IC50 [7] [nM]	in-vitro cytotoxicity in prostrate cancer cell line (PC-3) [7]	IC50 [8, 12] [nM]	in-vitro cytotoxicity in lung cancer cell line (A549) [8]	IC50 [9] [nM]	in-vitro cytotoxicity in breast cancer cell line (MCF-7) [9]	IC50 [3] [nM]	IC50 [4, 13] [nM]	IC50 [4, 14] [nM]	also measured
9-Methoxy-8-(2-chloroethoxy)-(13aS)-1,2,3,13a-tetrahydro-5H-pyrrolo[2,1-c][1,4]naphthodiazepine-5-one [2a]	7.1	9.5	910	2	exhibiting in-vitro cytotoxicity	exhibiting in-vitro cytotoxicity	10	20	exhibiting in-vitro cytotoxicity	20	exhibiting in-vitro cytotoxicity	20	exhibiting in-vitro cytotoxicity	110	exhibiting in-vitro cytotoxicity	2	exhibiting in-vitro cytotoxicity				in-vitro cytotoxicity in kidney cancer cell line (COS-1) ([3]; result in words): exhibiting in-vitro cytotoxicity
COc1cc2cc3c(cc2cc1OCCN1CCN(c2ccc(F)cc2)CC1)C(=O)N1CCC[C@H]1C=N3 [20a, 9-Methoxy-8-(2-[4-(4-fluorophenyl)piperazino]ethoxy)-(13aS)-1,2,3,13a-tetrahydro-5H-pyrrolo[2,1-c][1,4]naphthodiazepin-5-one]	5.9	7.0		6360	exhibiting in-vitro cytotoxicity	exhibiting in-vitro cytotoxicity			exhibiting in-vitro cytotoxicity		exhibiting in-vitro cytotoxicity		exhibiting in-vitro cytotoxicity		exhibiting in-vitro cytotoxicity		exhibiting in-vitro cytotoxicity	800 to 4320	10 to 5840	5840	IC50 ([5]; Homo sapiens, NCI-H460): 990 nM; IC50 [6, 15]: 4030 nM; IC50 [6, 16]: 20 to 7320 nM; IC50 ([7]; Homo sapiens): 4370 nM; IC50 [8, 17]: 10600 nM; IC50 [8, 18]: 20 to 11900 nM; IC50 ([9]; Homo sapiens, MCF7): 3990 nM
COc1cc2c(cc1O)N=CC1CCCN1C2=O (stereo not shown) [DC-81, reference compound]	0.3	0.7	32900	27600			15400	8930		5270		14200		17500		12600					
COc1cc2cc3c(cc2cc1OCCN1CCN(c2ncccn2)CC1)C(=O)N1CCC[C@H]1C=N3 [24a, 9-Methoxy-8-(2-[4-(2-pyrimidinyl)piperazino]ethoxy)-(13aS)-1,2,3,13a-tetrahydro-5H-pyrrolo[2,1-c][1,4]naphthodiazepin-5-one]	4.9	6.5		2210	exhibiting in-vitro cytotoxicity	exhibiting in-vitro cytotoxicity			exhibiting in-vitro cytotoxicity		exhibiting in-vitro cytotoxicity		exhibiting in-vitro cytotoxicity		exhibiting in-vitro cytotoxicity		exhibiting in-vitro cytotoxicity	800 to 4320	10 to 5840	200	IC50 ([5]; Homo sapiens, NCI-H460): 2 nM; IC50 [6, 15]: 1040 nM; IC50 [6, 16]: 20 to 7320 nM; IC50 ([7]; Homo sapiens): 10 nM; IC50 [8, 17]: 11900 nM; IC50 [8, 18]: 20 to 11900 nM; IC50 ([9]; Homo sapiens, MCF7): 1970 nM
COc1cc2cc3c(cc2cc1OCCN1CCN(C(C)=O)CC1)N=C[C@@H]1CCCN1C3=O [5a, 8-Methoxy-9-[2-(4-acetylpiperazino)ethoxy]-(13aS)-1,2,3,13a-tetrahydro-5H-pyrrolo[2,1-c][1,4]naphthodiazepin-5-one]	5.5	7.1		2660	exhibiting in-vitro cytotoxicity			1680	exhibiting in-vitro cytotoxicity	7320	exhibiting in-vitro cytotoxicity	13500	exhibiting in-vitro cytotoxicity	660	exhibiting in-vitro cytotoxicity	2880	exhibiting in-vitro cytotoxicity				
